From patent publication US20240199587A1, “HETEROCYCLIC COMPOUNDS” (Hoffmann-La Roche Inc., priority 2021, published 2024)

biological target: T1, MAGL (Homo sapiens, UniProt Q99685); assay: 2-AG assay (MAGL inhibitory activity, hydrolysis of 2-arachidonoylglycerol to arachidonic acid followed by mass spectrometry); assay type: biochemical; details: 8 μM 2-arachidonoylglycerol, 15 min pre-incubation, 30 min incubation at RT, RapidFire MS readout
T1 sequence (Q99685 1-303): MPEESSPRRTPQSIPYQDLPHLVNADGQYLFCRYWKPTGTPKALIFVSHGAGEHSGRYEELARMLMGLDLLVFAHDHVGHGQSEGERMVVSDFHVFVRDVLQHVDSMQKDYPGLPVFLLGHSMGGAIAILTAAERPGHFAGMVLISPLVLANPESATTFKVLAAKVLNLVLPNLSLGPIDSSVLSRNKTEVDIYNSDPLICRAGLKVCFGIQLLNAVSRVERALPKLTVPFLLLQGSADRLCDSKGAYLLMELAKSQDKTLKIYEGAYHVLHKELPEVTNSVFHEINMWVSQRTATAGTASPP
Summary of the method: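 Human MAGL ([…] final) pre-incubated 15 min at RT with compound in 50 mM TRIS, 1 mM EDTA, 0.01% Tween-20, 2.5% DMSO; 8 μM 2-AG then added for 30 min at RT. Acetonitrile quench with d8-arachidonic acid; arachidonic acid measured by RapidFire SPE–MS/MS, activity from arachidonic acid/d8 ratio.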

Row | Compound | IC50 [nM]
1 | O=C(N1C[C@H]2C[C@H](Oc3cc(C(F)(F)F)c(F)cc3F)C[C@H]2C1)N1CC2(CC(n3cnc(C4CC4)n3)C2)C1 [Example 132, [6-(3-cyclopropyl-1,2,4-triazol-1-yl)-2-azaspiro[3.3]heptan-2-yl]-[rac-(3aS,6aR)-5-[2,4-difluoro-5-(trifluoromethyl)phenoxy]-3,3a,4,5,6,6a-hexahydro-1H-cyclopenta[c]pyrrol-2-yl]methanone] | 1.7
2 | CC(=O)Nc1ccc(S(=O)(=O)N2CC3(CN(C(=O)N4CC5(CC(n6cnc(C7CC7)n6)C5)C4)C3)C2)cc1 [Example 295, N-[4-[[6-[6-(3-cyclopropyl-1,2,4-triazol-1-yl)-2-azaspiro[3.3]heptane-2-carbonyl]-2,6-diazaspiro[3.3]heptan-2-yl]sulfonyl]phenyl]acetamide] | 89
3 | N#Cc1cc(O[C@H]2C[C@@H]3CN(C(=O)N4CC5(CC(n6cnc(C7CC7)n6)C5)C4)C[C@@H]3C2)ccc1C(F)(F)F [Example 118, 5-[rac-(3aS,6aR)-2-[6-(3-cyclopropyl-1,2,4-triazol-1-yl)-2-azaspiro[3.3]heptane-2-carbonyl]-3,3a,4,5,6,6a-hexahydro-1H-cyclopenta[c]pyrrol-5-yl]oxy]-2-(trifluoromethyl) benzonitrile] | 4.7
4 | O=C(N1CC(Oc2cccc(C3CC3)c2F)C1)N1CC2(CC(n3cnc(C4CC4)n3)C2)C1 [Example 198, [3-(3-cyclopropyl-2-fluoro-phenoxy)azetidin-1-yl]-[6-(3-cyclopropyl-1,2,4-triazol-1-yl)-2-azaspiro[3.3]heptan-2-yl]methanone] | 0.5
5 | Nc1ncc(S(=O)(=O)N2CC3(CN(C(=O)N4CC5(CC(n6cnc(C7CC7)n6)C5)C4)C3)C2)cn1 [Example 310, [2-(2-aminopyrimidin-5-yl)sulfonyl-2,6-diazaspiro[3.3]heptan-6-yl]-[6-(3-cyclopropyl-1,2,4-triazol-1-yl)-2-azaspiro[3.3]heptan-2-yl]methanone] | 154
6 | O=C(N1CC(C23CC(c4nnc(C5CC5)[nH]4)(C2)C3)C1)N1CC2(CC(n3cnc(C(F)(F)F)n3)C2)C1 [Example 433, [3-[3-(5-cyclopropyl-4H-1,2,4-triazol-3-yl)-1-bicyclo[1.1.1]pentanyl]azetidin-1-yl]-[6-[3-(trifluoromethyl)-1,2,4-triazol-1-yl]-2-azaspiro[3.3]heptan-2-yl]methanone] | 44.1
7 | Cc1cc(O[C@H]2C[C@@H]3CN(C(=O)N4CC5(CC(n6cnc(C7CC7)n6)C5)C4)C[C@@H]3C2)ccc1F [Example 125, [6-(3-cyclopropyl-1,2,4-triazol-1-yl)-2-azaspiro[3.3]heptan-2-yl]-[rac-(3aS,6aR)-5-(4-fluoro-3-methyl-phenoxy)-3,3a,4,5,6,6a-hexahydro-1H-cyclopenta[c]pyrrol-2-yl]methanone] | 4.6
8 | O=C(O)c1ccc(F)c(S(=O)(=O)N2CC3(CN(C(=O)N4CC5(CC(n6cnc(C7CC7)n6)C5)C4)C3)C2)c1 [Example 327] | 611
9 | O=C(N1CC2(CC(Cc3ccc(C(F)(F)F)nn3)C2)C1)N1CC2(CC(n3cnc(C4(O)CC4)n3)C2)C1 [Example 409, [6-[3-(1-hydroxycyclopropyl)-1,2,4-triazol-1-yl]-2-azaspiro[3.3]heptan-2-yl]-[6-[[6-(trifluoromethyl)pyridazin-3-yl]methyl]-2-azaspiro[3.3]heptan-2-yl]methanone] | 27.5
10 | O=C(N1CC(c2ccc(NCC3(C(F)(F)F)CC3)nc2)C1)N1CC2(CC(n3cnc(C(F)(F)F)n3)C2)C1 [Example 424, [3-[6-[[1-(trifluoromethyl)cyclopropyl]methylamino]-3-pyridyl]azetidin-1-yl]-[6-[3-(trifluoromethyl)-1,2,4-triazol-1-yl]-2-azaspiro[3.3]heptan-2-yl]methanone] | 0.16
11 | Cc1cn(C2CC3(C2)CN(C(=O)N2CC4(CC(Cc5ccc(F)cc5F)C4)C2)C3)cn1 [Example 218, [6-[(2,4-difluorophenyl)methyl]-2-azaspiro[3.3]heptan-2-yl]-[6-(4-methylimidazol-1-yl)-2-azaspiro[3.3]heptan-2-yl]methanone] | 2.1
12 | O=C(NCC(F)(F)F)c1cnn(C2CN(C(=O)N3CC4(CC(n5cnc(C6CC6)n5)C4)C3)C2)c1 [Example 312, 1-[1-[6-(3-cyclopropyl-1,2,4-triazol-1-yl)-2-azaspiro[3.3]heptane-2-carbonyl]azetidin-3-yl]-N-(2,2,2-trifluoroethyl)pyrazole-4-carboxamide] | 202
13 | CS(=O)(=O)c1ccc(CC2CC3(C2)CN(C(=O)N2CC4(CC(n5cnc(C6(O)CC6)n5)C4)C2)C3)cc1 [Example 491, [6-[3-(1-hydroxycyclopropyl)-1,2,4-triazol-1-yl]-2-azaspiro[3.3]heptan-2-yl]-[6-[(4-methylsulfonylphenyl)methyl]-2-azaspiro[3.3]heptan-2-yl]methanone] | 6.78
14 | O=C(N1C[C@H]2CC(Oc3ccc(F)cc3Cl)C[C@H]2C1)N1CC2(CC(n3cnnc3C3CC3)C2)C1 (mixture of isomers) [Example 178, [6-(3-cyclopropyl-1,2,4-triazol-4-yl)-2-azaspiro[3.3]heptan-2-yl]−[rac-(3aS,6aR)-5-(2-chloro-4-fluoro-phenoxy)-3,3a,4,5,6,6a-hexahydro-1H-cyclopenta[c]pyrrol-2-yl]methanone] | 156
15 | O=C(N1CC2(CC(NS(=O)(=O)c3cccc(C(F)(F)F)c3)C2)C1)N1CC2(CC(n3cnc(C4CC4)n3)C2)C1 [Example 195, N-[2-[6-(3-cyclopropyl-1,2,4-triazol-1-yl)-2-azaspiro[3.3]heptane-2-carbonyl]-2-azaspiro[3.3]heptan-6-yl]-3-(trifluoromethyl)benzen esulfonamide] | 0.4
16 | CS(=O)(=O)c1ccc(CC2CC3(C2)CN(C(=O)N2CC4(CC(n5cnc(C6CC6)n5)C4)C2)C3)cc1 [Example 205, [6-(3-cyclopropyl-1,2,4-triazol-1-yl)-2-azaspiro[3.3]heptan-2-yl]-[6-(4-mesylbenzyl)-2-azaspiro[3.3]heptan-2-yl]methanone] | 0.9
17 | CP(C)(=O)c1ccc(CC2CC3(C2)CN(C(=O)N2CC4(CC(n5cnc(C(F)(F)F)n5)C4)C2)C3)nc1 [Example 377, [6-[(5-dimethylphosphoryl-2-pyridyl)methyl]-2-azaspiro[3.3]heptan-2-yl]-[6-[3-(trifluoromethyl)-1,2,4-triazol-1-yl]-2-azaspiro[3.3]heptan-2-yl]methanone] | 392
18 | O=C(N1CC(c2cn(C3(C(F)(F)F)COC3)nn2)C1)N1CC2(CC(n3cnc(C4CC4)n3)C2)C1 [Example 167, [6-(3-cyclopropyl-1,2,4-triazol-1-yl)-2-azaspiro[3.3]heptan-2-yl]-[3-[1-[3-(trifluoromethyl)oxetan-3-yl]triazol-4-yl]azetidin-1-yl]methanone] | 85.5
19 | O=C(N1CCC(CNS(=O)(=O)c2ccc(C(F)(F)F)cc2)CC1)N1CC2(CC(n3cnc(C4CC4)n3)C2)C1 [Example 253] | 16.2
20 | Cc1cc(C(=O)N2CC3(CC(n4cnc(C5CC5)c4)C3)C2)cnc1OCC1(C(F)(F)F)CC1 [Example 25, [6-(4-cyclopropylimidazol-1-yl)-2-azaspiro[3.3]heptan-2-yl]-[5-methyl-6-[[1-(trifluoromethyl)cyclo-propyl]methoxy]-3-pyridyl]methanone] | 12.2
21 | O=C(N1CC(Oc2cncc(C(F)(F)F)n2)C1)N1CC2(CC(n3cnc(C4CC4)n3)C2)C1 [Example 303, [6-(3-cyclopropyl-1,2,4-triazol-1-yl)-2-azaspiro[3.3]heptan-2-yl]-[3-[6-(trifluoromethyl)pyrazin-2-yl]oxyazetidin-1-yl]methanone] | 101
22 | O=C(N1CC2(CC(n3cnc(C4(O)CC4)n3)C2)C1)N1CC2(CC[C@@H](Cc3ccc(S(=O)(=O)C(F)(F)F)cc3)C2)C1 [Example 362, [6-[3-(1-hydroxycyclopropyl)-1,2,4-triazol-1-yl]-2-azaspiro[3.3]heptan-2-yl]-[(6S)-6-[[4-(trifluoromethylsulfonyl)phenyl]methyl]-2-azaspiro[3.4]octan-2-yl]methanone] | 1.73
23 | NC(=O)c1ccccc1-c1ccc(C2CN(C(=O)N3CC4(CC(n5cnc(C(F)(F)F)n5)C4)C3)C2)cc1 [Example 429, 2-[4-[1-[6-[3-(trifluoromethyl)-1,2,4-triazol-1-yl]-2-azaspiro[3.3]heptane-2-carbonyl]azetidin-3-yl]phenyl]benzamide] | 0.66
24 | O=C(N1CC2(CCN(Cc3ccc(C(F)(F)F)nc3)CC2)C1)N1CC2(CC(n3cnc(C4(O)CC4)n3)C2)C1 [Example 392, [6-[3-(1-hydroxycyclopropyl)-1,2,4-triazol-1-yl]-2-azaspiro[3.3]heptan-2-yl]-[7-[[6-(trifluoromethyl)-3-pyridyl]methyl]-2,7-diazaspiro[3.5]nonan-2-yl]methanone] | 197
25 | O=C(N1CC2(CC(n3cnc(C4CC4)n3)C2)C1)N1CC2(CN(Cc3ccc(F)cc3Cl)C2)C1 [Example 201, (6-(2-chloro-4-fluorobenzyl)-2,6-diazaspiro[3.3]heptan-2-yl)(6-(3-cyclopropyl-1H-1,2,4-triazol-1-yl)-2-azaspiro[3.3]heptan-2-yl)methanone] | 0.7
26 | O=C(N1CCC(C(c2ccc(F)cc2)c2nc(C3CC3)no2)CC1)N1CC2(CC(n3cnc(C4CC4)n3)C2)C1 (centres unmarked) [Example 207, [4-[(3-cyclopropyl-1,2,4-oxadiazol-5-yl)-(4-fluorophenyl)methyl]-1-piperidyl]-[6-(3-cyclopropyl-1,2,4-triazol-1-yl)-2-azaspiro[3.3]heptan-2-yl]methanone] | 1
